Biological target: 11-beta-hydroxysteroid dehydrogenase 1 (Homo sapiens) (UniProt P28845)
Experiment: ligand binding to human 11beta-HSD1 – biophysical, DSF, SYPRO orange, purified protein (AID 398)
Details: DSF thermal shift, protein 3 µM, buffer 10 mM HEPES, pH 7.5, NaCl 150 mM, stronger effect = higher value

11-beta-hydroxysteroid dehydrogenase 1 (Homo sapiens), sequence (P28845 whole entry, looked up): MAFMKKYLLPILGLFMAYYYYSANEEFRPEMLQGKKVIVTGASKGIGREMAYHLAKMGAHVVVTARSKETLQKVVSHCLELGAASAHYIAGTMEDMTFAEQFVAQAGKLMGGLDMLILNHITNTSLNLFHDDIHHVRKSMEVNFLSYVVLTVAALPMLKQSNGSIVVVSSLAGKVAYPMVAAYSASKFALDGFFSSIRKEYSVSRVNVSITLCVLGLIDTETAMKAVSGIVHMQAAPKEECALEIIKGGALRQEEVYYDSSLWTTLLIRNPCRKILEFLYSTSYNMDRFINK

NC(=O)c1ccc[n+](C2OC(COP(=O)(O)OP(=O)(O)OCC3OC(n4cnc5c(N)ncnc54)C(OP(=O)(O)O)C3O)C(O)C2O)c1 (stereo unspecified)
Tm shift (at 40 µM): 5.7 Celsius | Tm shift (measured here: second DSF experiment, at 40 µM, run 2, at 40 µM): 2.6 Celsius

COC(=O)[C@H](C)CO
Tm shift (at 10 µM, NADP 100 µM): 6.7 Celsius

C=CC1=C(C)/C(=C/c2[nH]c(Cc3[nH]c(/C=C4\NC(=O)C(C)=C4C=C)c(C)c3CCC(=O)O)c(CCC(=O)O)c2C)NC1=O
Tm shift (at 10 µM, NADP 100 µM): 3.9 Celsius

CC(C)(COP(=O)(O)OP(=O)(O)OCC1OC(n2cnc3c(N)ncnc32)C(O)C1OP(=O)(O)O)C(O)C(=O)NCCC(=O)NCCSC(=O)Cc1ccccc1 (stereo unspecified)
Tm shift (at 10 µM, NADP 100 µM): 3.6 Celsius

CC(C)(COP(=O)(O)OP(=O)(O)OCC1OC(n2cnc3c(N)ncnc32)C(O)C1OP(=O)(O)O)C(O)C(=O)NCCC(=O)NCCSC(=O)CCC(=O)O (stereo unspecified)
Tm shift (at 10 µM, NADP 100 µM): 2.7 Celsius

— PubChem BioAssay AID398
